Bounds are passed on as bounds.

Common to all, as to type: cell-based
Assay [1] deals with SDF-1 induced Ca flux in SUP-T1 cells. In words: Inhibition of chemokine (SDF-1) induced Ca flux measured on a FLIPR. Particulars: Homo sapiens. How it is done: Inhibition of Chemokine Induced Ca Flux Measured on a FLIPR (Molecular Devices) Loading dye: Fluo-3, AM (Molecular Probes F-1241) is dissolved in anhydrous DMSO and stored frozen in aliquots. To increase the solubility of the dye in the loading medium, 10% (w/v) pluronic acid (Molecular Probes F-127) is added to the Fluo-3 stock solution immediately before use. HBSS+20 mM Hepes buffer+0.2% BSA, pH 7.4. HBSS 10× [(w/o phenol red and sodium bicarbonate (Gibco 14 065–049)]; Hepes buffer 1M (Gibco 15 630–056), BSA (Sigma A3675). The flux buffer is vacuum-filtered and stored refrigerated for a maximum of 5 days. Before use in the experiment, the buffer is warmed at 37° C. in a waterbath. The test compounds were diluted in flux buffer to the desired concentration and added to 4 wells of a black microplate (4 parallel measurements per compound). The following control wells were used: 100% response control (no inhibition), flux buffer was added; 100% inhibition control: chemokine was added at 5-times the concentration required to induce a Ca flux. The chemokines are diluted in flux buffer to concentrations that are 4-fold higher than the desired concentrations required for stimulation of the cells (i.e. 2.5 nM for SDF-1[…] and 0.6 nM for RANTES). The chemokines were added to untreated 96-well Sero well compound plates (International Medical, Sterilin code 611F96). In the negative control well's (baseline monitoring), flux buffer is added instead of chemokine. As a positive control to check for dye loading efficiency, 20 μM digitonin (final concentration) was also included. The agonist plate was incubated in the FLIPR (37° C.) for 15–30 min. Cell Loading Protocol for Measuring Inhibition of SDF-1[…] Induced Ca Flux in SUP-T1 Cells. SUP-T1 cells were centrifuged at room temperature (RT) and re-suspended in loading medium (RPMI-1640 containing 2% FBS and 4 μM Fluo-3, AM). The cells were incubate at room temperature for 45 min. then washed twice in flux buffer then incubated in flux buffer at room temperature for 10 min. The cells were centrifuged and re-suspended in flux buffer at a density of 3×10^6 cells per mL. A 100 uL aliquot of the cell suspension (3×10^5 cells) was added to each well of a black microplate (Costar 3603), which already contains 50 uL of a solution of the test compound (at concentrations that are 3-fold higher than the desired final compound concentrations). The microplate is then gently centrifuged at room temperature. Homogeneous spreading of the cells on the bottom of the microplate wells was then confirmed with a microscope and the microplate was incubated in the FLIPR (37° C.) for 10 min. prior to testing. Fluorescence Measurements as a Function of Time on the FLIPR The FLIPR settings (camera exposure time and laser power) are adjusted to obtain initial fluorescence values between 8,000 and 10,000 units. After monitoring a 20 second-baseline, the agonist (chemokine) (50 uL) is added by automatic pipettor with black pipette tips. Fluorescence is measured simultaneously in all wells of the microplate every 2 seconds (first 2 min) and thereafter every 6 seconds (additional 2 min). The average ca-flux measured in each set of 4 identical wells (one test compound) was calculated by the FLIPR software.

The subject of assay [2] is HIV-1 NL4.3 or IIIB. In words: Inhibition of HIV-1 (NL4.3 or IIIB, CXCR4 using) replication in MT-4 cells, MTT viability. To be noted: Human immunodeficiency virus 1, IIIB, MT4, concentration protecting 50% of virus-infected cells against viral cytopathicity. How it is done: Assay for Inhibition of HIV-1 (NL4.3) Replication in MT-4 Cells Inhibition of HIV-1 NL4.3 (or IIIB, CXCR4 using) replication assays were performed as previously described (Bridger et al. J. Med. Chem. 1999, 42, 3971-3981; De […] et al. Proc. Natl. Acad. Sci, 1992, 89, 5286-5290; De […] et al. Antimicrob. Agents Chemother. 1994, 38, 668-674; Bridger et al. J. Med. Chem. 1995, 38, 366-378; Schols et al. J. Exp. Med., 1997, 186, 1383-1388). Anti-HIV activity and cytotoxicity measurements were carried out in parallel. They were based on the viability of MT-4 cells that had been infected with HIV in the presence of various concentrations of the test compounds. After the MT-4 cells were allowed to proliferate for 5 days, the number of viable cells was quantified by a tetrazolium-based colorimetric 3-(4,5-dimethylthiazol-2-yl)-2,5-diphenyltetrazolium bromide (MTT) procedure in 96-well microtrays. In all of these assays, viral input (viral multiplicity of infection, MOI) was 0.01, or 100 times the 50% cell culture infective dose (CCID50). The EC50 was defined as the concentration required to protect 50% of the virus-infected cells against viral cytopathicity.

The subject of assay [3] is HIV-1 BaL. In words: Inhibition of HIV-1 BaL (CCR5 using) replication in PHA-stimulated PBMC's, viral p24 antigen expression. To be noted: Human immunodeficiency virus 1, BAL.

As a reminder, the inhibition is the drop in the measured response relative to a control, in per cent. A high value points to a strong effect. The term EC50 denotes the concentration at which the effect is half-maximal. A lower EC50 goes with an effect from little substance. In assay [1], `CC(NCc1ccc(CN(Cc2nc3ccccc3[nH]2)C2CCCc3cccnc32)cc1)c1ccccn1` (stereo not drawn) [Example 66, N-[1-(2-pyridinyl)eth-1-yl]-N′-(1H-benzimidazol-2-ylmethyl)-N′-(5,6,7,8-tetrahydro-8-quinolinyl)-1,4-benzenedimethanamine] returned an inhibition at 20 µg/mL of more than 20%. Also, the EC50 in assay [2] and in assay [3] was less than 20 µg/mL throughout.
In turn, `c1cnc2c(c1)CCCC2N(Cc1ccc(CNCc2cc3ccccc3cn2)cc1)Cc1nc2ccccc2[nH]1` (stereo not drawn) [Example 63, N-(3-isoquinolinylmethyl)-N′-(1H-benzimidazol-2-ylmethyl)-N′-(5,6,7,8-tetrahydro-8-quinolinyl)-1,4-benzenedimethanamine] returned an inhibition at 20 µg/mL in assay [1] of more than 20%. Besides, the EC50 in assay [2] and in assay [3] was less than 20 µg/mL in each case.
The compound `c1ccc(N[C@H]2CCCC[C@H]2NCc2ccc(CNCc3ccccn3)cc2)cc1` (relative stereo) [Example 132, N-(2-pyridinylmethyl)-N′-[cis-2-(N-phenylamino)cyclohexyl]-1,4-benzenedimethanamine] showed an inhibition at 20 µg/mL in assay [1] of more than 20%. In addition, the EC50 in assay [2] and in assay [3] was less than 20 µg/mL each time.
`FC(F)(F)c1c[nH]c(CN(Cc2ccc(CNCc3ccccn3)cc2)C2CCCc3cccnc32)n1` (stereo not drawn) [Example 35, N-(2-pyridinylmethyl)-N′-(4-trifluormethyl-1H-imidazol-2-ylmethyl)-N′-(5,6,7,8-tetrahydro-8-quinolinyl)-1,4-benzenedimethanamine]: the inhibition at 20 µg/mL in assay [1] is more than 20%. Also, the EC50 in assay [2] and in assay [3] was less than 20 µg/mL in each case.
In assay [1], `Cc1cc(CNCc2ccc(CN(Cc3nc4ccccc4[nH]3)C3CCCc4cccnc43)cc2)cc(C)n1` (stereo not drawn) [Example 62, N-(2,6-dimethyl-4-pyridinylmethyl)-N′-(1H-benzimidazol-2-ylmethyl)-N′-(5,6,7,8-tetrahydro-8-quinolinyl)-1,4-benzenedimethanamine] registered an inhibition at 20 µg/mL of more than 20%. Besides, the EC50 in assay [2] and in assay [3] was less than 20 µg/mL in each case.
Regarding `c1ccc(-c2cccc3nc(CN(Cc4ccc(CNCc5ccccn5)cc4)C4CCCc5cccnc54)[nH]c23)cc1` (stereo not drawn) [Example 14, N-(2-pyridinylmethyl)-N′-[4-phenyl-1H-benzimidazol-2-ylmethyl]-N′-(5,6,7,8-tetrahydro-8-quinolinyl)-1,4-benzenedimethanamine], in assay [1], the inhibition at 20 µg/mL is more than 20%. Also, the EC50 in assay [2] and in assay [3] was less than 20 µg/mL in each case.
`COc1cc(CNCc2ccc(CN(Cc3nc4ccccc4[nH]3)C3CCCc4cccnc43)cc2)nc2ccccc12` (stereo not drawn) [Example 64, N-(4-methoxy-2-quinolinylmethyl)-N′-(1H-benzimidazol-2-ylmethyl)-N′-(5,6,7,8-tetrahydro-8-quinolinyl)-1,4-benzenedimethanamine]: the inhibition at 20 µg/mL in assay [1] was more than 20%. For the same compound, the EC50 in assay [2] and in assay [3] was less than 20 µg/mL throughout.
As to `c1ccc(CNCc2ccc(CN[C@H]3CCCC[C@H]3NCc3ccccn3)cc2)nc1` [Example 134, N-(2-pyridinylmethyl)-N′-[cis-2-[(N-pyridin-2-ylmethyl)amino]cyclohexyl]-1,4-benzenedimethanamine], the inhibition at 20 µg/mL in assay [1] is more than 20%. In addition, the EC50 in assay [2] and in assay [3] was less than 20 µg/mL each time.
In assay [1], `Oc1ccccc1CNCc1ccc(CN(Cc2nc3ccccc3[nH]2)C2CCCc3cccnc32)cc1` (stereo not drawn) [Example 68, N-(2-hydroxyphenylmethyl)-N′-(1H-benzimidazol-2-ylmethyl)-N′-(5,6,7,8-tetrahydro-8-quinolinyl)-1,4-benzenedimethanamine] registered an inhibition at 20 µg/mL of more than 20%. For the same compound, the EC50 in assay [2] and in assay [3] was less than 20 µg/mL each time.
The compound `COc1cccc2[nH]c(CN(Cc3ccc(CNCc4ccccn4)cc3)C3CCCc4cccnc43)nc12` (stereo not drawn) [Example 13, N-(2-pyridinylmethyl)-N′-[4-methoxy-1H-benzimidazol-2-ylmethyl]-N′-(5,6,7,8-tetrahydro-8-quinolinyl)-1,4-benzenedimethanamine] came in with an inhibition at 20 µg/mL in assay [1] of more than 20%. Moreover, the EC50 in assay [2] and in assay [3] was less than 20 µg/mL each time.
For the compound `Cc1nc(CN(Cc2ccc(CNCc3ccccn3)cc2)C2CCCc3cccnc32)[nH]c1-c1ccccc1` (stereo not drawn) [Example 28, N-(2-Pyridinylmethyl)-N′-(4-methyl-5-phenyl-1H-imidazol-2-ylmethyl)-N′-(5,6,7,8-tetrahydro-8-quinolinyl)-1,4-benzenedimethanamine], the inhibition at 20 µg/mL in assay [1] is more than 20%. The EC50 in assay [2] and in assay [3] was less than 20 µg/mL throughout.
The compound `c1ccc(CNCc2ccc(CN[C@H]3CCCC[C@@H]3NCc3ccccn3)cc2)nc1` (relative stereo) [Example 133, N-(2-pyridinylmethyl)-N′-[trans-2-[(pyridin-2-ylmethyl)amino]cyclohexyl]-1,4-benzenedimethanamine] returned an inhibition at 20 µg/mL in assay [1] of more than 20%. The EC50 in assay [2] and in assay [3] was less than 20 µg/mL each time.
`c1ccc(-c2cnc(CN(Cc3ccc(CNCc4ccccn4)cc3)C3CCCc4cccnc43)[nH]2)cc1` (stereo not drawn) [Example 25, N-(2-pyridinylmethyl)-N′-(4-Phenyl-1H-imidazol-2-ylmethyl)-N′-(5,6,7,8-tetrahydro-8-quinolinyl)-1,4-benzenedimethanamine]: the inhibition at 20 µg/mL in assay [1] was more than 20%. In addition, the EC50 in assay [2] and in assay [3] was less than 20 µg/mL throughout.
On to `CCCCc1ccc(CNCc2ccc(CN(Cc3nc4ccccc4[nH]3)C3CCCc4cccnc43)cc2)nc1` (stereo not drawn) [Example 54, N-(5-butyl-2-pyridinylmethyl)-N′-(1H-benzimidazol-2-ylmethyl)-N′-(5,6,7,8-tetrahydro-8-quinolinyl)-1,4-benzenedimethanamine], for which the inhibition at 20 µg/mL in assay [1] is more than 20%. Also, the EC50 in assay [2] and in assay [3] was less than 20 µg/mL each time.
In assay [1], `COc1cccc(-c2cnc(CN(Cc3ccc(CNCc4ccccn4)cc3)C3CCCc4cccnc43)[nH]2)c1` (stereo not drawn) [Example 30, N-(2-Pyridinylmethyl)-N′-[5-(3-methoxyphenyl)-1H-imidazol-2-ylmethyl]-N′-(5,6,7,8-tetrahydro-8-quinolinyl)-1,4-benzenedimethanamine] showed an inhibition at 20 µg/mL of more than 20%. In addition, the half-maximal effective concentration (EC50) in assay [2] and in assay [3] was less than 20 µg/mL in each case.
For `CC(C)(C)c1cnc(CN(Cc2ccc(CNCc3ccccn3)cc2)C2CCCc3cccnc32)[nH]1` (stereo not drawn) [Example 29, N-(2-Pyridinylmethyl)-N′-(5-tert-butyl-1H-imidazol-2-ylmethyl)-N′-(5,6,7,8-tetrahydro-8-quinolinyl)-1,4-benzenedimethanamine], in assay [1], the inhibition at 20 µg/mL is more than 20%. Besides, the EC50 in assay [2] and in assay [3] was less than 20 µg/mL throughout.

For the origin of these results see patent publication US7084155B2, “Chemokine receptor binding heterocyclic compounds” (AnorMED, priority 2000, dated 2006).
